# From ChEMBL document CHEMBL4680214, “Fluorinated derivatives of 2-phenyl-3-hydroxy-4(1H)-quinolinone as tubulin polymerization inhibitors” (Eur J Med Chem, 2020)
# Calls of active or inactive are those of the source. The rule behind the calls is not given here.
# Experiments:
# K562 [1] = test: Cytotoxicity against human K562 cells incubated for 72 hrs by MTS assay; type: functional, cell-based; settings: K562, 72 h
# CCRF-CEM [2] = test: Cell cycle arrest in human CCRF-CEM cells assessed as accumulation at S phase at IC50 measured after 24 hrs by propidium iodide staining based flow cytometry (reference value: 42.2%); type: functional
# CCRF-CEM [3] = test: Cell cycle arrest in human CCRF-CEM cells assessed as BrU incorporation at 5 times IC50 measured after 24 hrs by propidium iodide/immunostaining based flow cytometry (reference value: 52.2%); type: functional
# HCT-116 [4] = test: Cell cycle arrest in human HCT-116 cells assessed as accumulation at G0/G1 phase at IC50 measured after 24 hrs by propidium iodide staining based flow cytometry (reference value: 35.3%); type: functional
# HCT-116 [5] = test: Cell cycle arrest in human HCT-116 cells assessed as accumulation at sub-G1 phase at IC50 measured after 24 hrs by propidium iodide staining based flow cytometry (reference value: 1.6%); type: functional
# CCRF-CEM [6] = test: Cell cycle arrest in human CCRF-CEM cells assessed as polyploid cell population at 2 times IC50 measured after 24 hrs by propidium iodide staining based flow cytometry (reference value: 11.3%); type: functional
# CCRF-CEM [7] = test: Cell cycle arrest in human CCRF-CEM cells assessed as accumulation at sub-G1 phase at 5 times IC50 measured after 24 hrs by propidium iodide staining based flow cytometry (reference value: 2%); type: functional
# HCT-116 [8] = test: Cell cycle arrest in human HCT-116 cells assessed as phosphorylation of histone H3 at Ser10 at IC50 measured after 24 hrs by propidium iodide staining based flow cytometry (reference value: 3.4%); type: functional
# HCT-116 [9] = test: Cell cycle arrest in human HCT-116 cells assessed as accumulation at S phase at IC50 measured after 24 hrs by propidium iodide staining based flow cytometry (reference value: 37.7%); type: functional
# HCT-116 [10] = test: Cytotoxicity against human HCT-116 cells incubated for 72 hrs by MTS assay; type: functional, cell-based; settings: HCT-116, 72 h
# CCRF-CEM [11] = test: Cell cycle arrest in human CCRF-CEM cells assessed as increase in accumulation at G2/M phase at 2 times IC50 measured after 6 to 12 hrs by propidium iodide staining based flow cytometry; type: functional; settings: time 6-12 hrs
# CCRF-CEM [12] = test: Cell cycle arrest in human CCRF-CEM cells assessed as decrease in Bcl2 expression at 2 times IC50 measured after 24 hrs by Western blot analysis; type: functional, cell-based
# CCRF-CEM [13] = test: Cell cycle arrest in human CCRF-CEM cells assessed as increase in cyclin B1 expression at 2 times IC50 measured after 6 to 12 hrs by Western blot analysis; type: functional, cell-based; settings: time 6-12 hrs
# K562 [14] = test: Cytotoxicity against human paclitaxel-resistant K562 cells incubated for 72 hrs by MTS assay; type: functional, cell-based; settings: K562, 72 h
# CCRF-CEM [15] = test: Cytotoxicity against human daunorubicine-resistant CCRF-CEM cells incubated for 72 hrs by MTS assay; type: functional, cell-based
# HCT-116 [16] = test: Cell cycle arrest in human HCT-116 cells assessed as accumulation at S phase at 5 times IC50 measured after 24 hrs by propidium iodide staining based flow cytometry (reference value: 37.7%); type: functional
# BJ = test: Cytotoxicity against human BJ cells incubated for 72 hrs by MTS assay; type: cell-based
# CCRF-CEM [17] = test: Cell cycle arrest in human CCRF-CEM cells assessed as polyploid cell population at 2 times IC50 measured after 6 hrs by propidium iodide staining based flow cytometry (reference value: 11.3%); type: functional
# CCRF-CEM [18] = test: Cell cycle arrest in human CCRF-CEM cells assessed as accumulation at sub-G1 phase at IC50 measured after 24 hrs by propidium iodide staining based flow cytometry (reference value: 2%); type: functional
# CCRF-CEM [19] = test: Cell cycle arrest in human CCRF-CEM cells assessed as BrdU incorporation at 5 times IC50 measured after 24 hrs by propidium iodide/immunostaining based flow cytometry (reference value: 60.0%); type: functional
# CCRF-CEM [20] = test: Cytotoxicity against human CCRF-CEM cells incubated for 72 hrs by MTS assay; type: functional, cell-based
# CCRF-CEM [21] = test: Cell cycle arrest in human CCRF-CEM cells assessed as accumulation at G0/G1 phase at 5 times IC50 measured after 24 hrs by propidium iodide staining based flow cytometry (reference value: 35.2%); type: functional
# HCT-116 [22] = test: Cytotoxicity against p53-deficient human HCT-116 cells incubated for 72 hrs by MTS assay; type: functional, cell-based; settings: HCT-116, 72 h
# HCT-116 [23] = test: Cell cycle arrest in human HCT-116 cells assessed as BrdU incorporation at IC50 measured after 24 hrs by propidium iodide/immunostaining based flow cytometry (reference value: 48.6%); type: functional
# CCRF-CEM [24] = test: Cell cycle arrest in human CCRF-CEM cells assessed as accumulation at S phase at 5 times IC50 measured after 24 hrs by propidium iodide staining based flow cytometry (reference value: 42.2%); type: functional
# CCRF-CEM [25] = test: Cell cycle arrest in human CCRF-CEM cells assessed as polyploid cell population at 2 times IC50 measured after 36 hrs by propidium iodide staining based flow cytometry (reference value: 11.3%); type: functional
# CCRF-CEM [26] = test: Cell cycle arrest in human CCRF-CEM cells assessed as BrdU incorporation at IC50 measured after 24 hrs by propidium iodide/immunostaining based flow cytometry (reference value: 60.0%); type: functional
# Sus scrofa [27] = organism: Sus scrofa; test: Inhibition of porcine brain tubulin polymerization assessed as Vmax of polymerization at 10 umol/L measured at 60 secs interval for 30 mins by turbidometric method; settings: dose 10.0 µmol/L
# HCT-116 [28] = test: Cell cycle arrest in human HCT-116 cells assessed as accumulation at G0/G1 phase at 5 times IC50 measured after 24 hrs by propidium iodide staining based flow cytometry (reference value: 35.3%); type: functional
# HCT-116 [29] = test: Cell cycle arrest in human HCT-116 cells assessed as accumulation at sub-G1 phase at 5 times IC50 measured after 24 hrs by propidium iodide staining based flow cytometry (reference value: 1.6%); type: functional
# A549 = test: Cytotoxicity against human A549 cells incubated for 72 hrs by MTS assay; type: functional, cell-based; settings: A549, 72 h
# CCRF-CEM [30] = test: Cell cycle arrest in human CCRF-CEM cells assessed as polyploid cell population at 2 times IC50 measured after 12 hrs by propidium iodide staining based flow cytometry (reference value: 11.3%); type: functional
# CCRF-CEM [31] = test: Cell cycle arrest in human CCRF-CEM cells assessed as increase in phosphorylation of histone H3 at Ser10 at 2 times IC50 measured after 6 to 12 hrs by Western blot analysis; type: functional, cell-based; settings: time 6-12 hrs
# Sus scrofa [32] = organism: Sus scrofa; test: Inhibition of porcine brain tubulin polymerization at 10 umol/L measured at 60 secs interval for 30 mins by turbidometric method; settings: dose 10.0 µmol/L
# CCRF-CEM [33] = test: Cell cycle arrest in human CCRF-CEM cells assessed as accumulation at G2/M phase at 5 times IC50 measured after 24 hrs by propidium iodide staining based flow cytometry (reference value: 22.6%); type: functional
# HCT-116 [34] = test: Cell cycle arrest in human HCT-116 cells assessed as accumulation at G2/M phase at IC50 measured after 24 hrs by propidium iodide staining based flow cytometry (reference value: 27.0%); type: functional
# HCT-116 [35] = test: Cell cycle arrest in human HCT-116 cells assessed as phosphorylation of histone H3 at Ser10 at 5 times IC50 measured after 24 hrs by propidium iodide staining based flow cytometry (reference value: 3.4%); type: functional
# CCRF-CEM [36] = test: Cell cycle arrest in human CCRF-CEM cells assessed as phosphorylation of histone H3 at Ser10 at 5 times IC50 measured after 24 hrs by propidium iodide staining based flow cytometry (reference value: 2.0%); type: functional
smiles,measurement,setting,value
O=c1c(O)c(-c2ccccc2)[nH]c2cc(F)c(Sc3ccccc3)cc12,IC50,K562 [1],1.3 µM
same,Activity,CCRF-CEM [2],56.7%
same,Activity,CCRF-CEM [3],11.4%
same,Activity,HCT-116 [4],33.3%
same,Activity,HCT-116 [5],3.4%
same,Activity,CCRF-CEM [6],16.6%
same,Activity,CCRF-CEM [7],29.7%
same,Activity,HCT-116 [8],6.2%
same,Activity,HCT-116 [9],33.5%
same,IC50,HCT-116 [10],1.3 µM
same,Activity,CCRF-CEM [11],Active
same,Activity,CCRF-CEM [12],inactive
same,Activity,CCRF-CEM [13],Active
same,IC50,K562 [14],2.9 µM
same,IC50,CCRF-CEM [15],3.7 µM
same,Activity,HCT-116 [16],33.2%
same,IC50,BJ,> 50 µM
same,Activity,CCRF-CEM [17],10.5%
same,Activity,CCRF-CEM [18],5.8%
same,Activity,CCRF-CEM [19],18.7%
same,IC50,CCRF-CEM [20],3.3 µM
same,Activity,CCRF-CEM [21],58.2%
same,IC50,HCT-116 [22],4 µM
same,Activity,HCT-116 [23],42.1%
same,Activity,CCRF-CEM [24],21.6%
same,Activity,CCRF-CEM [25],20.8%
same,Activity,CCRF-CEM [26],74.2%
same,Vmax (milli optical density/minute),Sus scrofa [27],8.3
same,Activity,HCT-116 [28],2.7%
same,Activity,HCT-116 [29],8.2%
same,IC50,A549,3.6 µM
same,Activity,CCRF-CEM [30],12.4%
same,Activity,CCRF-CEM [31],Active
same,inhibition,Sus scrofa [32],Active
same,Activity,CCRF-CEM [33],20.2%
same,Activity,HCT-116 [34],33.2%
same,Activity,HCT-116 [35],15.5%
same,Activity,CCRF-CEM [36],4.9%
